Reference: patent US10131679B2, “Substituted dihydropyrrolopyrazole compound” (UBE INDUSTRIES, LTD., priority 2014, dated 2018)
Counter-ions that a name gives are not always drawn.

What was measured:
PAK4 = molecular target: T1, PAK4 (Homo sapiens, UniProt O96013); test: PAK4 enzyme inhibition test; assay type: biochemical; conditions: Ki=IC50/(1+S/Km); 33P bound to MBP, [γ-33P]ATP, 30° C. for 20 minutes; read-out: Ki value of PAK4 inhibitory activity
T1 construct: purchased Invitrogen Corp. PV4212
Description: PAK4 Enzyme Inhibition Test
The preparation of a buffer solution was performed by mixing a trishydroxyaminomethane buffer solution (Tris buffer solution) (pH 7.5), DTT, Triton X-100, MgCl2, ethylene glycol bis(β-aminoethyl ether)-N,N,N′,N′-tetraacetic acid (EGTA), (3-glycerol phosphate, and sodium orthovanadate(V). A 40 μM [γ-^33P]ATP solution was used by diluting a 10 mM ATP solution and a commercially available [γ-^33P]ATP solution (manufactured by PerkinElmer, Inc., Code No. NEG-302H) with the buffer solution. A PAK4 solution was used by diluting commercially available PAK4 (manufactured by Invitrogen Corp., Catalog No. PV4212) with the buffer solution. A substrate solution was used by diluting MBP with the buffer solution. As for the preparation of a reaction solution, the buffer solution, the 40 μM [γ-^33P]ATP solution, the PAK4 solution, and the substrate solution were mixed at 4° C. to obtain a reaction solution.
(§1) PAK4 enzyme reaction was performed by adding 5 μL of a test compound solution prepared with 10% DMSO/90% injectable distilled water, and 45 μL of the reaction solution in a 1.5 mL microtube at 4° C. and reacting in the microtube at 30° C. for 20 minutes in a water bath incubator. After the reaction, a 10% aqueous TCA solution was added to each microtube while cooled to 4° C., and mixed to terminate the reaction. The resultant was left standing at 4° C. for 10 minutes and then centrifuged in a centrifuge, and the supernatant was discarded. Next, a 2% aqueous TCA solution was added, mixed, and then centrifuged in a centrifuge, and the supernatant was discarded. This washing operation was performed twice. After the washing, precipitates were dissolved in a 1 N aqueous NaOH solution, and the radioactivity was measured with a liquid scintillation counter.
The calculation of the inhibitory activity of the test compound against PAK4 was performed as a test compound concentration inhibiting 50% of the amount of ^33P bound to MBP (IC50 value) by using EXSUS (version 8.0.0 or version 8.0.1, manufactured by CAC Exicare Corp.).
(§2) The calculation of a Ki value was performed according to the following calculation expression. S means the concentration of ATP contained in the reaction solution, and Km means a Michaelis-Menten constant. Ki=IC50/(1+S/Km)

[1] = system: human large intestine cancer cell line (HCT-116); test: Human large intestine cancer (HCT-116) cell growth inhibition test; assay type: cell-based; conditions: 72 h, HCT-116, culture for 3 days, sulforhodamine B absorbance
How it was run: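 HCT-116 cells seeded at 1.0×10^3 cells/well in McCoy's 5a with 10% FBS, then exposed to compound (0.1% DMSO final) for 3 days. Growth measured by sulforhodamine B absorbance; IC50 derived from concentration-inhibition data.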

CDK2 = molecular target: T2, CDK2 (Homo sapiens, UniProt P24941); test: CDK2 enzyme inhibition test; assay type: biochemical; conditions: Ki=IC50/(1+S/Km); 33P bound to MBP, [γ-33P]ATP, 30° C. for 20 minutes; read-out: Ki value of CDK2 inhibitory activity
T2 construct: purchased Invitrogen Corp. PV3267
Description: CDK2 Enzyme Inhibition Test
The preparation of a buffer solution was performed by mixing a HEPES buffer solution (pH 7.4), DTT, Triton X-100, and MgCl2. A 500 μM [γ-^33P]ATP solution was used by diluting a 10 mM ATP solution and a commercially available [γ-^33P]ATP solution (manufactured by PerkinElmer, Inc., Code No. NEG-302H) with the buffer solution. A CDK2 solution was used by diluting commercially available CDK2 (manufactured by Invitrogen Corp., Catalog No. PV3267) with the buffer solution. A substrate solution was used by diluting MBP with the buffer solution. As for the preparation of a reaction solution, the buffer solution, the 500 μM [γ-^33P]ATP solution, the CDK2 solution, and the substrate solution were mixed at 4° C. to obtain a reaction solution.
as §1, with “CDK2” for “PAK4”, “mixed thereto,” for “mixed,”
The calculation of the inhibitory activity of the test compound against CDK2 was performed as a test compound concentration inhibiting 50% of the amount of ^33P bound to MBP (IC50 value) by using EXSUS (version 8.0.0 or version 8.0.1, manufactured by CAC Exicare Corp.).
as §2

CDK7 = molecular target: T3, CDK7 (Homo sapiens, UniProt P50613); test: CDK7 enzyme inhibition test; assay type: biochemical; conditions: Ki=IC50/(1+S/Km); 33P bound to MBP, [γ-33P]ATP, 30° C. for 20 minutes; read-out: Ki value of CDK7 inhibitory activity
T3 construct: purchased Carna Biosciences, Inc. 04-108
Description: CDK7 Enzyme Inhibition Test
The preparation of a buffer solution was performed by mixing a N-2-hydroxyethylpiperazine-N′-2-ethanesulfonic acid buffer solution (HEPES buffer solution) (pH 7.4), dithiothreitol (DTT), Triton X-100, and magnesium chloride (MgCl2). A 500 μM [γ-^33P]ATP solution was used by diluting a 10 mM ATP solution and a commercially available [γ-^33P]ATP solution (manufactured by PerkinElmer, Inc., Code No. NEG-302H) with the buffer solution. A CDK7 solution was used by diluting commercially available CDK7 (manufactured by Carna Biosciences, Inc., Catalog No. 04-108) with the buffer solution. A substrate solution was used by diluting myelin basic protein (MBP) with the buffer solution. As for the preparation of a reaction solution, the buffer solution, the 500 μM [γ-^33P]ATP solution, the CDK7 solution, and the substrate solution were mixed at 4° C. to obtain a reaction solution.
CDK7 enzyme reaction was performed by adding 5 μL of a test compound solution prepared with 10% dimethyl sulfoxide (DMSO)/90% injectable distilled water, and 45 μL of the reaction solution to a 1.5 mL microtube at 4° C. and reacting in the microtube at 30° C. for 20 minutes in a water bath incubator. After the reaction, a 10% aqueous trichloroacetic acid (TCA) solution was added to each microtube while cooled to 4° C., and mixed to terminate the reaction. The resultant was left standing at 4° C. for 10 minutes and then centrifuged in a centrifuge, and the supernatant was discarded. Next, a 2% aqueous TCA solution was added, mixed, and then centrifuged in a centrifuge, and the supernatant was discarded. This washing operation was performed twice. After the washing, precipitates were dissolved in a 1 N aqueous sodium hydroxide (NaOH) solution, and the energy quantity (radioactivity) of the reaction product was measured with a liquid scintillation counter.
The calculation of the inhibitory activity of the test compound against CDK7 was performed as a test compound concentration inhibiting 50% of the amount of ^33P bound to MBP (IC50 value) by using EXSUS (version 8.0.0 or version 8.0.1, manufactured by CAC Exicare Corp.).
as §2

T1 sequence (O96013 whole entry): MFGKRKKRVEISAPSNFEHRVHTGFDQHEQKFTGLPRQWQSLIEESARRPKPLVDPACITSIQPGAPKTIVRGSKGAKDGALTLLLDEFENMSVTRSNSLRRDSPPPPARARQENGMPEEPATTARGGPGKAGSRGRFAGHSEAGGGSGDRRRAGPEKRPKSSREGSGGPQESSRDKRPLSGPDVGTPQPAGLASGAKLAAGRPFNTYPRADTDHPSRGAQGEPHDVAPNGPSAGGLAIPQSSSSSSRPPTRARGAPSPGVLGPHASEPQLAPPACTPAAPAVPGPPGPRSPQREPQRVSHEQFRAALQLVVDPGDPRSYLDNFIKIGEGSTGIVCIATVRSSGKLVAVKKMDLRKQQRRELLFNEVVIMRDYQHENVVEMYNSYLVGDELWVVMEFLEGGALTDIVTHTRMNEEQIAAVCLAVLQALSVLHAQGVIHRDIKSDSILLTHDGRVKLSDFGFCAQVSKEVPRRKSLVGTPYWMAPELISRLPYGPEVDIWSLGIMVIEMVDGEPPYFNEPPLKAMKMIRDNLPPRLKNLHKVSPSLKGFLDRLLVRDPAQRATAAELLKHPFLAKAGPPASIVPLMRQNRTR
T3 sequence (P50613 whole entry): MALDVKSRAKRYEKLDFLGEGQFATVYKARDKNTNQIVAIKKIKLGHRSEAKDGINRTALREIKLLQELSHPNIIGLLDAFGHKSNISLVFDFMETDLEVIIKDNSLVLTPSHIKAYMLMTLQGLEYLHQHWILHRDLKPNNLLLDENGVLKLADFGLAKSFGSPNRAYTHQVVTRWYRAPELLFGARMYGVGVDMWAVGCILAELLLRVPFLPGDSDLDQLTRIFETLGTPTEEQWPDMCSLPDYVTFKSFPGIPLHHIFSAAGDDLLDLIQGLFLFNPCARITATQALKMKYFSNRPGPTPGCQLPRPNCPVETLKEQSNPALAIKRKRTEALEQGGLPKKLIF
T3 sequence (P51946 whole entry partner): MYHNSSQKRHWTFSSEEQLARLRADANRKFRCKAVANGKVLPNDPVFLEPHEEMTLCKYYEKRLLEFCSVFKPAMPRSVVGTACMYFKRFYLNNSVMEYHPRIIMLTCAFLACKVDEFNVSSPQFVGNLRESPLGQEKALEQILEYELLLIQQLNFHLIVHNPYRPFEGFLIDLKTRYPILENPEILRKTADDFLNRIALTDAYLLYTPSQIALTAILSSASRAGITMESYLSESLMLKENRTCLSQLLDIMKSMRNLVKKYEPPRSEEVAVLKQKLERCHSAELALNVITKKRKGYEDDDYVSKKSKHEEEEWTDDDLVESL
T3 sequence (P51948 whole entry partner): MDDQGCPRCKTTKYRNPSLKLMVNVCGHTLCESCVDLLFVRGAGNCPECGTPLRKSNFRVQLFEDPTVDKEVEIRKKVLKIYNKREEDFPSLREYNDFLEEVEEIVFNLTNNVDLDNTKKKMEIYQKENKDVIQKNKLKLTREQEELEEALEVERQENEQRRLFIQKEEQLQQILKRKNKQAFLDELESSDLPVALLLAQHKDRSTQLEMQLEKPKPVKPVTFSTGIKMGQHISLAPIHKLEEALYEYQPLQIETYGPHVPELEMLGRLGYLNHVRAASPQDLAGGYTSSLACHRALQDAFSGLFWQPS

Row | Ki (PAK4) [µM] | IC50 [1] [µM] | Ki (CDK2) [µM] | Ki (CDK7) [µM] | SMILES
1 | ≥ 0.5 | ≤ 0.5 | ≥ 1 | ≤ 0.05 | CC(C)(CO)C(NC(=O)N1Cc2c(NC(=O)C3([Si](C)(C)C)CC3)n[nH]c2C1(C)C)c1ccccc1 (stereo not drawn) [III-353, N-(3-Hydroxy-2,2-dimethyl-1-phenylpropyl)-6,6-dimethyl-3-[1-(trimethylsilyl)cyclopropanecarboxamido]-4,6-dihydropyrrolo[3,4-c]pyrazole-5(1H)-carboxamide]
2 | ≥ 0.5 | ≤ 0.5 | ≥ 1 | ≤ 0.05 | CC(O)CNC(=O)N1Cc2c(NC(=O)C3([Si](C)(C)C)CCC3)n[nH]c2C1(C)C (stereo not drawn) [IV-442, N-(2-Hydroxypropyl)-6,6-dimethyl-3-[1-(trimethylsilyl)cyclobutanecarboxamido]-4,6-dihydropyrrolo[3,4-c]pyrazole-5(1H)-carboxamide]
3 | ≥ 0.5 |  | ≥ 1 | ≤ 0.05 | CC1(C)c2[nH]nc(NC(=O)C3([Si](C)(C)C)CCC3)c2CN1C(=O)N[C@H](C(=O)O)c1ccccc1 [IV-403 (sodium salt), Sodium (S)-2-{6,6-dimethyl-3-[1-(trimethylsilyl)cyclobutanecarboxamido]-1,4,5,6-tetrahydropyrrolo[3,4-c]pyrazole-5-carboxamido}-2-phenylacetate]
4 | ≥ 0.5 | ≤ 0.5 | ≥ 1 | ≤ 0.05 | CC[Si](C)(C)C(C)(C)C(=O)Nc1n[nH]c2c1CN(C(=O)N[C@H](CO)c1ccccc1)C2(C)C [II-116, (S)-3-[2-(Ethyldimethylsilyl)-2-methylpropanamido]-N-(2-hydroxy-1-phenylethyl)-6,6-dimethyl-4,6-dihydropyrrolo[3,4-c]pyrazole-5(1H)-carboxamide]
5 | ≥ 0.5 |  | ≥ 1 |  | CC1(C)c2[nH]nc(NC(=O)C3([Si](C)(C)C)CCC3)c2CN1C(=O)N[C@@H](CO)c1ccccc1 [IV-115, (R)—N-(2-Hydroxy-1-phenylethyl)-6,6-dimethyl-3-[1-(trimethylsilyl)cyclobutanecarboxamido]-4,6-dihydropyrrolo[3,4-c]pyrazole-5(1H)-carboxamide]
6 | ≥ 0.5 | ≤ 0.5 | ≥ 1 | ≤ 0.05 | CC1(C)c2[nH]nc(NC(=O)C3([Si](C)(C)C)CCC3)c2CN1C(=O)NC(CO)c1ccccn1 (stereo not drawn) [IV-534, N-[2-Hydroxy-1-(pyridin-2-yl)ethyl]-6,6-dimethyl-3-[1-(trimethylsilyl)cyclobutanecarboxamido]-4,6-dihydropyrrolo[3,4-c]pyrazole-5(1H)-carboxamide]
7 | ≥ 0.5 | ≤ 0.5 | ≥ 1 | ≤ 0.05 | CC(C)C(NC(=O)N1Cc2c(NC(=O)C3([Si](C)(C)C)CCC3)n[nH]c2C1(C)C)C(C)(C)CO (stereo not drawn) [IV-822, N-(1-Hydroxy-2,2,4-trimethylpentan-3-yl)-6,6-dimethyl-3-[1-(trimethylsilyl)cyclobutanecarboxamido]-4,6-dihydropyrrolo[3,4-c]pyrazole-5(1H)-carboxamide]

Row | SMILES | Ki (PAK4) [µM] | IC50 [1] [µM] | Ki (CDK2) [µM] | Ki (CDK7) [µM]
8 | CC(C)(O)C[C@@H](NC(=O)N1Cc2c(NC(=O)C3([Si](C)(C)C)CCC3)n[nH]c2C1(C)C)c1ccccc1F [IV-883, (R)—N-[1-(2-Fluorophenyl)-3-hydroxy-3-methylbutyl]-6,6-dimethyl-3-[1-(trimethylsilyl)cyclobutanecarboxamido]-4,6-dihydropyrrolo[3,4-c]pyrazole-5(1H)-carboxamide] | ≥ 0.5 | ≤ 0.5 | ≥ 1 | 
9 | C[C@@H](Oc1ccccc1)C(=O)N1Cc2c(NC(=O)C3([Si](C)(C)C)CCC3)n[nH]c2C1(C)C [IV-1258, (R)—N-[6,6-Dimethyl-5-(2-phenoxypropanoyl)-1,4,5,6-tetrahydropyrrolo[3,4-c]pyrazol-3-yl]-1-(trimethylsilyl)cyclobutanecarboxamide] | ≥ 0.5 | ≤ 0.5 | ≥ 1 | ≤ 0.05
10 | CC(C)(O)C[C@@H](NC(=O)N1Cc2c(NC(=O)C3([Si](C)(C)C)CC3)n[nH]c2C1(C)C)c1ccccc1 [III-298, (R)—N-(3-Hydroxy-3-methyl-1-phenylbutyl)-6,6-dimethyl-3-[1-(trimethylsilyl)cyclopropanecarboxamido]-4,6-dihydropyrrolo[3,4-c]pyrazole-5(1H)-carboxamide] | ≥ 0.5 | ≤ 0.5 | ≥ 1 | ≤ 0.05
